Assay results as given in patent publication US11192852B2, “Pyrazolyl and pyrimidinyl tricyclic enones as antioxidant inflammation modulators” (REATA PHARMACEUTICALS, INC., priority 2010, dated 2021).

Tests used:
[1] = tested on: IFNγ-induced NO production in RAW264.7 mouse macrophages; experiment: Suppression of IFNγ-induced nitric oxide production (Griess reagent); assay type: cell-based; details: 2 h pre-treatment (0-200 nM), then IFNγ 24 h, normalized to cell viability
Source text: Nitric Oxide Production and Cell Viability.

[2] = tested on: Nrf2 transcription factor (human NQO1-ARE reporter) in HuH7 cells; experiment: NQO1-ARE Luciferase Reporter Assay; assay type: cell-based; details: Huh-7, 62.5 nM, 18 h, fold over DMSO vehicle, Firefly normalized to Renilla
Source text: NQO1-ARE Luciferase Reporter Assay.
This assay allows for quantitative assessment of the endogenous activity of the Nrf2 transcription factor in cultured mammalian cells. Expression of Firefly luciferase from NQO1-ARE luciferase reporter plasmid is controlled by binding of Nrf2 to a specific enhancer sequence corresponding to the antioxidant response element (ARE) that was identified in the promoter region of the human NADPH:quinone oxidoreductase 1 (NQO1) gene (Xie et al., 1995). The plasmid was constructed by inserting a sequence:
5′-[…]-3′ (SEQ ID NO:1) encompassing the human NQO1-ARE into the pLuc-MCS vector using HindIII/XhoI cloning sites (GenScript Corp., Piscataway, N.J.). The assay is performed in HuH7 cells maintained in DMEM (Invitrogen) supplemented with 10% FBS and 100 U/ml (each) of penicillin and streptomycin. For the assay, cells are plated in 96-well plates at 17,000 cells per well. Twenty four hours later, the cells are co-transfected with 50 ng each of NQO1-ARE reporter plasmid and pRL-TK plasmid using Lipofectamine 2000 transfection reagent (Invitrogen). pRL-TK plasmid constitutively expresses Renilla luciferase and is used as an internal control for normalization of transfection levels. Thirty hours after transfection, the cells are treated with compounds (at concentrations ranging from 0 to 1 μM) for eighteen hours. Firefly and Renilla luciferase activity is assayed by Dual-Glo Luciferase Assay (Promega Corp., Madison, Wis.), the luminescence signal is measured on an L-Max II luminometer (Molecular Devices). Firefly luciferase activity is normalized to the Renilla activity, and fold induction over a vehicle control (DMSO) of normalized Firefly activity is calculated. The fold induction at 62.5 nM concentration is used for comparing relative potencies of compounds to induce Nrf2 transcriptional activity. See Xie T, Belinsky M, Xu Y, Jaiswal A K. ARE- and TRE-mediated regulation of gene expression. Response to xenobiotics and antioxidants. J Biol Chem. (1995) 270(12):6894-6900, which is incorporated herein by reference.

[3] = Mus musculus, RAW264.7, RAW264.7 cells

Row | Compound | IC50 [1, 3] [nM] | fold induction at 0.0625 µM [2] | IC50 ([1]; RAW264.7 cells) [nM]
1 | C[C@@H]1C(=O)C(C#N)=C[C@]2(C)c3nn(C)c(-c4ccccc4)c3CC[C@@H]12 (racemic) [TX63541] | 6 | 4.4 | –
2 | Cn1cc2c(n1)[C@@]1(C)C=C(C#N)C(=O)C(C)(C)[C@@H]1CC2 [TX63341] | – | 1.7 | 70
3 | Cn1nc2c(c1-c1ccccc1)CC[C@H]1C(C)(C)C(=O)C(C#N)=C[C@]21C [TX63465] | 18.3 | 4.8 | –
4 | Cc1ncc2c(n1)[C@@]1(C)C=C(C#N)C(=O)C(C)(C)[C@@H]1CC2 [TX63468] | 64 | 2 | –
5 | Cn1nc2c(c1-c1cccnc1)CC[C@H]1C(C)(C)C(=O)C(C#N)=C[C@]21C [TX63503] | 17 | 5.5 | –
6 | Cn1nc2c(c1-c1ccncc1)CC[C@H]1C(C)(C)C(=O)C(C#N)=C[C@]21C [TX63505] | 16 | 6.8 | –
7 | Cn1nc2c(c1-c1cccc(F)c1)CC[C@H]1C(C)(C)C(=O)C(C#N)=C[C@]21C [TX63506] | 25 | 3.2 | –
8 | Cc1cccc(-c2c3c(nn2C)[C@@]2(C)C=C(C#N)C(=O)C(C)(C)[C@@H]2CC3)c1 [TX63512] | 25 | 1.4 | –
9 | COc1cccc(-c2c3c(nn2C)[C@@]2(C)C=C(C#N)C(=O)C(C)(C)[C@@H]2CC3)c1 [TX63513] | 25 | 2.9 | –
10 | Cn1nc2c(c1-c1ccccc1F)CC[C@H]1C(C)(C)C(=O)C(C#N)=C[C@]21C [TX63519] | 21 | 2.5 | –
11 | Cn1nc2c(c1NC(=O)c1ccccc1)CC[C@H]1C(C)(C)C(=O)C(C#N)=C[C@]21C [TX63531] | > 200 | 1.1 | –
12 | Cn1nc2c(c1-c1ccccc1)CC[C@H]1CC(=O)C(C#N)=C[C@]21C [TX63540] | 66.8 | 1.6 | –
13 | CC(C)c1c2c(nn1C)[C@@]1(C)C=C(C#N)C(=O)C(C)(C)[C@@H]1CC2 [TX63547] | 87 | 3.1 | –
14 | Cn1nc2c(c1Cc1ccccc1)CC[C@H]1C(C)(C)C(=O)C(C#N)=C[C@]21C [TX63550] | 54 | 1.8 | –
15 | CC1(C)C(=O)C(C#N)=C[C@]2(C)c3nc(-c4ccccc4)ncc3CC[C@@H]12 [TX63552] | 24 | 1.9 | –
16 | Cc1ncc2c(n1)[C@@]1(C)C=C(C#N)C(=O)[C@@H](C)[C@@H]1CC2 [TX63554] | 42 | 1.9 | –
17 | CC(C)(C)c1ncc2c(n1)[C@@]1(C)C=C(C#N)C(=O)C(C)(C)[C@@H]1CC2 [TX63561] | 44 | 2.4 | –
18 | CN1C(=O)C(C#N)=C[C@]2(C)c3nn(C)c(-c4ccccc4)c3CC[C@@H]12 [TX63568] | > 200 | 1.3 | –
19 | C[C@@H]1C(=O)C(C#N)=C[C@]2(C)c3nc(-c4ccccc4)ncc3CC[C@@H]12 [TX63569] | 9.8 | 2 | –
20 | Cc1nc2c(c(=O)n1C)CC[C@H]1C(C)(C)C(=O)C(C#N)=C[C@]21C [TX63584] | > 200 | 3.1 | –
21 | CC1(C)C(=O)C(C#N)=C[C@]2(C)c3nc(-c4cccnc4)ncc3CC[C@@H]12 [TX63586] | 22 | 2.9 | –
22 | Cn1cc(-c2c3c(nn2C)[C@@]2(C)C=C(C#N)C(=O)C(C)(C)[C@@H]2CC3)cn1 [TX63588] | 33 | 5.2 | –
23 | CC[C@@H]1C(=O)C(C#N)=C[C@]2(C)c3nc(-c4ccccc4)ncc3CC[C@@H]12 [TX63598] | 12 | 1.9 | –
24 | CC[C@@H]1C(=O)C(C#N)=C[C@]2(C)c3nn(C)c(-c4ccccc4)c3CC[C@@H]12 [TX63599] | 14 | 3.2 | –
25 | Cn1nc2c(c1Cl)CC[C@H]1C(C)(C)C(=O)C(C#N)=C[C@]21C [TX63604] | 49 | 3.4 | –
26 | CC1(C)C(=O)C(C#N)=C[C@]2(C)c3c(c(-c4ccccc4)nn3-c3ccccc3)CC[C@@H]12 [TX63605] | 37 | 2.8 | –
27 | Cn1nc2c(c1-c1ccccc1)CC[C@H]1[C@H](Cc3ccccc3)C(=O)C(C#N)=C[C@]21C [TX63607] | > 200 | 1 | –
28 | COc1nc(-c2cccnc2)nc2c1CC[C@H]1[C@H](C)C(=O)C(C#N)=C[C@]21C [TX63724] | 3.1 | 4.9 | –
